According to PubChem BioAssay (NCI):
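Test compounds were applied to cells in 96-well plates for 48 hours at 5 doses. GI50: concentration for 50% inhibition of growth. At the TGI there is no net growth.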

Assays:
Assay in all cases: inhibition of tumour cell growth, NCI panel, 48 h
A498 renal = tested on: A498 renal
UACC-62 melanoma = tested on: UACC-62 melanoma
NCI-H23 lung = tested on: NCI-H23 lung
MDA-MB-231 breast = tested on: MDA-MB-231 breast
TK-10 renal = tested on: TK-10 renal
OVCAR-4 ovarian = tested on: OVCAR-4 ovarian
K-562 leukemia = tested on: K-562 leukemia
OVCAR-5 ovarian = tested on: OVCAR-5 ovarian
SNB-75 CNS = tested on: SNB-75 CNS
ACHN renal = tested on: ACHN renal

Row | Compound | GI50 (A498 renal) [µM] | TGI (A498 renal) [µM] | GI50 (UACC-62 melanoma) [µM] | TGI (UACC-62 melanoma) [µM] | GI50 (NCI-H23 lung) [µM] | TGI (NCI-H23 lung) [µM] | GI50 (MDA-MB-231 breast) [µM] | TGI (MDA-MB-231 breast) [µM] | GI50 (TK-10 renal) [µM] | TGI (TK-10 renal) [µM] | GI50 (OVCAR-4 ovarian) [µM] | TGI (OVCAR-4 ovarian) [µM] | GI50 (K-562 leukemia) [µM] | TGI (K-562 leukemia) [µM] | GI50 (OVCAR-5 ovarian) [µM] | TGI (OVCAR-5 ovarian) [µM] | GI50 (SNB-75 CNS) [µM] | TGI (SNB-75 CNS) [µM] | GI50 (ACHN renal) [µM] | TGI (ACHN renal) [µM]
1 | Cc1cc(N2CCN(C)CC2)nc(NC2CCCC(Nc3ccnc4cc(Cl)ccc34)C2)n1 (stereo not drawn) | 4.31 | 15.1 | 1.8 | 3.54 | 4.19 | 17.7 | 1.78 | 4.25 | 1.81 | 3.63 | 1.9 | 6.24 | 0.451 | 3.92 | 2.88 | 9.88 | 1.65 | 5 | 1.86 | 3.51
2 | O=C1OC(c2ccc([N+](=O)[O-])cc2)=N/C1=C\c1ccc(O)cc1 |  | > 100 |  | > 100 |  | > 100 |  | > 100 |  | > 100 |  | > 100 |  | > 100 |  | > 100 |  | > 100 |  | > 100
3 | C=CCSc1n[nH]c(-c2cccs2)n1 | > 100 | > 100 | > 100 | > 100 | > 100 | > 100 | > 100 | > 100 | > 100 | > 100 | > 100 | > 100 | > 100 | > 100 | > 100 | > 100 | > 100 | > 100 | > 100 | > 100
4 | CCN(C)S(=O)(=O)Nc1cccc(Nc2ncnc3cc(NC(=O)CCl)ccc23)c1Cl | 5.02 | 24.8 | 1.18 | 4.46 | 2.54 | 7.88 | 2.59 | 7.49 | 4.64 | 13.3 | 3.53 | 8.75 | 1.1 | > 25 | 2.62 | 6.76 | 3.36 | 7.67 | 3.38 | 7.67
5 | C=C1CC2(OC1=O)c1ccccc1CCc1ccccc12 |  | 41.2 |  | 15.9 |  | 23 |  | 21.2 |  | 7.09 |  | 4.65 |  | 4.81 |  | 27.7 |  | 15.6 |  | 3.33
6 | N#Cc1ccc(-n2cnc(NC(=O)[C@H]3CCN(C#N)C3)c2)cc1 | 2.03 | 4.76 | 0.892 | 4.47 | 1.78 | 12.6 | 1.91 | > 91.6 | 1.49 | 7.83 | 1.86 | 12.5 | 2.67 | > 100 | 3.3 | > 100 | 0.519 | 3.74 | 2.55 | > 100
7 | COc1cc(/C=C2\C(=O)N(c3c(Cl)cccc3Cl)c3ccccc32)cc(OC)c1O | 5.59 | 16.1 | 0.594 | 13.2 | 1.47 | 14.4 | 2.56 | 31.5 | 1.21 | 15.6 | 1.69 | 12.1 | 0.243 | > 66.6 | 8.04 | 25 | 1.03 | 17 | 0.59 | 14.2
8 | CCOC(=O)C(=Cc1ccc(Br)cc1)C(=O)OCC | 2.18 | 5.14 | 1.39 | 3.29 | 2.32 | 5.7 | 2.08 | 5.37 | 3.13 | 8.57 | 3.06 | 10.4 | 2.49 | > 100 | 2.66 | 6.52 | 1.59 | 3.17 | 2.09 | 4.45
9 | Cc1ccc(NC2=C(Cl)C(=O)c3nc(C)ccc3C2=O)cc1 | 0.0538 | 3.81 | 1.57 | 2.97 |  |  | 1.41 | 2.96 | 2.27 | 3.81 | 1.28 | 2.66 | 0.702 | > 100 | 1.87 | 3.62 | 1.81 | 3.72 | 1.59 | 2.97
10 | NC(C(=O)O)C(N)C(=O)O (stereo not drawn) |  | > 100 |  | > 100 |  | > 100 |  | > 100 |  | > 100 |  | > 100 |  | > 100 |  | > 100 |  |  |  | > 100
11 | COc1ccc2[nH]cc(/C=C3\C(=O)Nc4ccccc43)c2c1 | 3.15 | 15.1 | 4.09 | 20.6 | 10.5 | 49.6 | 3.95 | 21.9 | 7.98 | 31.3 | 6.21 | 60.3 | 2.28 | 9.83 | 11.6 | 42 | 3.14 | 15.1 | 5.85 | 37.5
12 | NC(=O)c1c(OCc2c(F)cc(Br)cc2F)nsc1NC(=O)NCCCCN1CCCC1 | 0.086 | 0.91 | 1.82 | 3.93 | 5.18 | > 10 | 1.55 | 5.02 | 2.06 | 7.94 | > 10 | > 10 | 1.44 | 5.91 | 3.1 | > 10 |  |  | 1.18 | 5.25
13 | CSC(=S)NN=C1CCCCC1 |  | > 100 |  | 38 |  | > 100 |  | > 100 |  | 89.7 |  | > 100 |  | 83.2 |  |  |  | > 100 |  | 56
14 | c1ccc(-c2cc(-c3cc(-c4ccccn4)[nH]n3)n[nH]2)nc1 |  | > 100 |  | > 100 |  | > 100 |  | > 100 |  |  |  | > 100 |  | > 100 |  | > 100 |  | > 100 |  | > 100
